What all share (assay): Kinase assay, binding constants (Kd), kinase-tagged T7 phage, qPCR
A general note: In qPCR the cycle at which signal appears reflects the starting amount.

The target in test [1] is FGFR4 (Homo sapiens (Human), UniProt P22455). An outline of the steps:
(§1)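 Using T7 phage lysates from BL21-derived E. coli, compounds at 0.9% final DMSO competed for kinase binding to ligand-bearing magnetic beads. After elution, qPCR measured remaining kinase, and Kds were fitted by non-linear least squares with the Hill slope fixed at −1.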

For test [2], the target named is FGFR1 (Homo sapiens (Human), UniProt P11362). An outline of the steps:
as §1

The target of test [3] is FGFR3 (Homo sapiens (Human), UniProt P22607). An outline of the steps:
as §1

For test [4], the target named is FGFR2 (Homo sapiens (Human), UniProt P21802). The method in brief:
as §1

For test [5], the target named is FGFR3 (V555M) (Homo sapiens (Human), UniProt P22607, V555M). Particulars: V555M mutant. The method in brief: as §1
Sequence of FGFR3 (V555M) (P22607 23-806 V555M): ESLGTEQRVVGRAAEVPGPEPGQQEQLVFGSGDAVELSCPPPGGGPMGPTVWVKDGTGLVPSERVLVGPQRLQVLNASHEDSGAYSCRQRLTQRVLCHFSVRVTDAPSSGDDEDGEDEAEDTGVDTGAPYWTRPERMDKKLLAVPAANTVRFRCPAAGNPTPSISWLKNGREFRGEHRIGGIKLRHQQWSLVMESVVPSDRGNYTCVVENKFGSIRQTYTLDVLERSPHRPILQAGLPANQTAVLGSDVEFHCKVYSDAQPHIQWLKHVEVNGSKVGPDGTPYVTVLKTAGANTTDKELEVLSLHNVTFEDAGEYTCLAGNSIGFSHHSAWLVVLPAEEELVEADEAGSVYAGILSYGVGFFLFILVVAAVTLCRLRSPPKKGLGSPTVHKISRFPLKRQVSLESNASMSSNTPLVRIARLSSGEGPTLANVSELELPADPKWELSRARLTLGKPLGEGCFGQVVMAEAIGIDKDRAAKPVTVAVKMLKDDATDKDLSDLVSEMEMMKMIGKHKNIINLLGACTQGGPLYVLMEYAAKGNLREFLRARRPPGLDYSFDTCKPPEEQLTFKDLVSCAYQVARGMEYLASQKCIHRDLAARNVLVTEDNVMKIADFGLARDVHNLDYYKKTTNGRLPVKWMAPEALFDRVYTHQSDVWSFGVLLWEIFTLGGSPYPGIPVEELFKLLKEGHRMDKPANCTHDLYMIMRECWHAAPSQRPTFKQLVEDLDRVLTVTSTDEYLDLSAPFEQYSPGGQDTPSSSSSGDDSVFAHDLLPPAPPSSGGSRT

Sequence of FGFR1 (P11362 22-822): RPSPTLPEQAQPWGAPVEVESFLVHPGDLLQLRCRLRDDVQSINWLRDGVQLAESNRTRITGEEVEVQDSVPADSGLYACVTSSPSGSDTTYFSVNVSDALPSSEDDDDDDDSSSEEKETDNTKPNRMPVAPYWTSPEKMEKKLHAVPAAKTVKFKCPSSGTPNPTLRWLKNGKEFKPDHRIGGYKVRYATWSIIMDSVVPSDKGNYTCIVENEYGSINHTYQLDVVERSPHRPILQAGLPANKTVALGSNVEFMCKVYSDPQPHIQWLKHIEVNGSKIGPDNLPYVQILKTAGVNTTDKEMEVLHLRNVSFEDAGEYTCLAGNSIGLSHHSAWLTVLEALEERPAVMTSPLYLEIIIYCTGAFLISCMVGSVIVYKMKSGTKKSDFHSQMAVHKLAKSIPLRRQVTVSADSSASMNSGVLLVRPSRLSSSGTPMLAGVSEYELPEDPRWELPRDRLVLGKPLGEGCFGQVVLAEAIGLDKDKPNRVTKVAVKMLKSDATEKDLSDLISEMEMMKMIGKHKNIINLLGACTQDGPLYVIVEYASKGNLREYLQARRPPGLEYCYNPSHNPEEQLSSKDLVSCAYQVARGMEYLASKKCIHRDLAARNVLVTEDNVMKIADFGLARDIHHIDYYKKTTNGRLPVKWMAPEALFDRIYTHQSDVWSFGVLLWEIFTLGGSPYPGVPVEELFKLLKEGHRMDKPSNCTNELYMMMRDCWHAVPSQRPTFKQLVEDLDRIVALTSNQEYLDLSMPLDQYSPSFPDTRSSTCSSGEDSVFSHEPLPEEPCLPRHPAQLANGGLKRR
Sequence of FGFR4 (P22455 22-802): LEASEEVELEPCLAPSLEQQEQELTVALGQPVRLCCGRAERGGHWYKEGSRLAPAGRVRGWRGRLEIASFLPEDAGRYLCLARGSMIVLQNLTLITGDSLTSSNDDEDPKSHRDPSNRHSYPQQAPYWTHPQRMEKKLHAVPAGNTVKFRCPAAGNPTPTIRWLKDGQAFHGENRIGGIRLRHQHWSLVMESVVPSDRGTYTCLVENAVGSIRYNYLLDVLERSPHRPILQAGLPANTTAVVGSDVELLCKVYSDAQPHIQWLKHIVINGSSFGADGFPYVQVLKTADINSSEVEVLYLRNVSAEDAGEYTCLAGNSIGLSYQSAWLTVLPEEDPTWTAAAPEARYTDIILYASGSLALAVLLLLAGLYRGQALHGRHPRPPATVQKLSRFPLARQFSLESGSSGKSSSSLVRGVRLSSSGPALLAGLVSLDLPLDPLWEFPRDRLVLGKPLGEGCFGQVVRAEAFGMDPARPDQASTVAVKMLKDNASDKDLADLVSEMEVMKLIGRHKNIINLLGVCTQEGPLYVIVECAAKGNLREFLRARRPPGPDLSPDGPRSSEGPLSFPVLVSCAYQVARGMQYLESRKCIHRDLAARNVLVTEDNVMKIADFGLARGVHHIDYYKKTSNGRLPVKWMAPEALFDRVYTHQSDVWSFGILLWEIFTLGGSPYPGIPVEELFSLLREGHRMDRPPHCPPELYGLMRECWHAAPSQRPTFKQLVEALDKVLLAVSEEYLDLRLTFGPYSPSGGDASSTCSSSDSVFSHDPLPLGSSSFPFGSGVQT
Sequence of FGFR3 (P22607 23-806): as the sequence (P22607 23-806 V555M) above, with M533V counted along it
Sequence of FGFR2 (P21802 22-821): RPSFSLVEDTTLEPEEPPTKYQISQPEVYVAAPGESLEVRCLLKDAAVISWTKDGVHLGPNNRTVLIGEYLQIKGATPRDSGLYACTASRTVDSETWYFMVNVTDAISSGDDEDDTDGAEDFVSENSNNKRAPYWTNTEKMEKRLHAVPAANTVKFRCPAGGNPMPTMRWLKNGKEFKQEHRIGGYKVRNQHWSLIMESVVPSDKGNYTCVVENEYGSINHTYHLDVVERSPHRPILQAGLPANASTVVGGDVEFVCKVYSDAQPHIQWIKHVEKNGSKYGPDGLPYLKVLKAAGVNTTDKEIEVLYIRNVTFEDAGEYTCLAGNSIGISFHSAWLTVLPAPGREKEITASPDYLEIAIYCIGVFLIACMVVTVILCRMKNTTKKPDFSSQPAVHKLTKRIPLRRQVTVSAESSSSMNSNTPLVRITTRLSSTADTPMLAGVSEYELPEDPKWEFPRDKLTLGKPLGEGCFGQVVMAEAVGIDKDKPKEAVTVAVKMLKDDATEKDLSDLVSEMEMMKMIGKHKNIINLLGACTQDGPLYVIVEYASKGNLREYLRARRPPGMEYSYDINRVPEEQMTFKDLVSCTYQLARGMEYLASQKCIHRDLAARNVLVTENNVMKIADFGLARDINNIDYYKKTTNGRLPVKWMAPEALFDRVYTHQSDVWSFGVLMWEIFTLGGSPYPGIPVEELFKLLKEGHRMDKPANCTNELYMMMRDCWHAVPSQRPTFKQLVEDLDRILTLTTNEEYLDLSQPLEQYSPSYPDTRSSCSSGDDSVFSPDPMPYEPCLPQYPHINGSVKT

Take `COc1cc2[nH]nc(-c3cnc(N4CC5CC(C4)N5)c(C)c3)c2cc1O[C@H](C)c1c(C)cnnc1C` [Example 317, 3-(5-(5-((R)-1-(3,5-dimethylpyridazin-4-yl)ethoxy)-6-methoxy-1H-indazol-3-yl)-3-methylpyridin-2-yl)-3,6-diazabicyclo[3.1.1]heptane]: the Kd in test [1], in test [2], in test [3], in test [4] and in test [5] was 1 to 20 nM each time.
Turning to `Cc1cnnc(C)c1[C@@H](C)Oc1ccc2[nH]nc(-c3cnc(N4CC(O)C4)c(C#N)c3)c2c1` [Example 318, (R)-5-(5-(1-(3,5-dimethylpyridazin-4-yl)ethoxy)-1H-indazol-3-yl)-2-(3-hydroxyazetidin-1-yl)nicotinonitrile], the Kd (in general, the concentration at which binding is half-saturated) in test [1] was 1 to 20 nM; in test [2], 100 to 300 nM; in test [3], 20 to 100 nM; in test [4], 100 to 300 nM; in test [5] it was 1 to 20 nM.
As to `COc1cc2[nH]nc(-c3cnc(N4CC[C@@H](O)C4)c(C#N)c3)c2cc1O[C@H](C)c1c(C)cnnc1C` [Example 319, 5-(5-((R)-1-(3,5-dimethylpyridazin-4-yl)ethoxy)-6-methoxy-1H-indazol-3-yl)-2-((R)-3-hydroxypyrrolidin-1-yl)nicotinonitrile], the Kd in test [1] is 1 to 20 nM; in test [2], 20 to 100 nM; in test [3], 1 to 20 nM; in test [4] it was 20 to 100 nM; in test [5] it was 1 to 20 nM.
As to `COc1cc2[nH]nc(-c3cnc(N4CC(O)C4)c(C#N)c3)c2cc1O[C@H](C)c1c(C)cnnc1C` [Example 320, (R)-5-(5-(1-(3,5-dimethylpyridazin-4-yl)ethoxy)-6-methoxy-1H-indazol-3-yl)-2-(3-hydroxyazetidin-1-yl)nicotinonitrile], the Kd in test [1] was in the range of 1 to 20 nM; in test [2] it was 20 to 100 nM; in test [3], 20 to 100 nM; in test [4] it was 20 to 100 nM; in test [5], 1 to 20 nM.
On to `COc1cc2[nH]nc(-c3cnc(N4CC[C@@H](C(C)(C)O)C4)c(C#N)c3)c2cc1O[C@H](C)c1c(C)cnnc1C` [Example 321, 5-(5-((R)-1-(3,5-dimethylpyridazin-4-yl)ethoxy)-6-methoxy-1H-indazol-3-yl)-2-((R)-3-(2-hydroxypropan-2-yl)pyrrolidin-1-yl)nicotinonitrile], for which the dissociation constant Kd was 1 to 20 nM in test [1]; 20 to 100 nM in test [2]; 1 to 20 nM in test [3]; 1 to 20 nM in test [4]; 1 to 20 nM in test [5].
For `COc1cc2[nH]nc(-c3cnc(N4CCC4)c(C#N)c3)c2cc1O[C@H](C)c1c(C)cnnc1C` [Example 322, (R)-2-(azetidin-1-yl)-5-(5-(1-(3,5-dimethylpyridazin-4-yl)ethoxy)-6-methoxy-1H-indazol-3-yl)nicotinonitrile], the Kd in test [1] fell in the range of 1 to 20 nM; in test [2], 100 to 300 nM; in test [3], 20 to 100 nM; in test [4] it was 20 to 100 nM; in test [5], 1 to 20 nM.
Take `COc1cc(-c2n[nH]c3ccc(O[C@H](C)c4c(C)cnnc4C)cc23)cnc1N1CC2CC(C1)N2CC(C)(C)O` [Example 323, 1-(3-(5-(5-((R)-1-(3,5-dimethylpyridazin-4-yl)ethoxy)-1H-indazol-3-yl)-3-methoxypyridin-2-yl)-3,6-diazabicyclo[3.1.1]heptan-6-yl)-2-methylpropan-2-ol]: the Kd was 1 to 20 nM in test [1]; more than 300 nM in test [2]; more than 300 nM in test [3]; more than 300 nM in test [4]; 20 to 100 nM in test [5].
As for `COc1cc2[nH]nc(-c3cnc(N4CC5(COC5)C4)c(C#N)c3)c2cc1O[C@H](C)c1c(C)cnnc1C` [Example 324, (R)-5-(5-(1-(3,5-dimethylpyridazin-4-yl)ethoxy)-6-methoxy-1H-indazol-3-yl)-2-(2-oxa-6-azaspiro[3.3]heptan-6-yl)nicotinonitrile], the Kd in test [1] was 1 to 20 nM; in test [2] it was 20 to 100 nM; in test [3], 20 to 100 nM; in test [4], 20 to 100 nM; in test [5], 1 to 20 nM.
For `Cc1cnnc(C)c1[C@@H](C)Oc1ccc2[nH]nc(-c3cnc(N4CCN5C(=O)NCC5C4)c(C#N)c3)c2c1` (stereo partly drawn) [Example 325, 5-(5-((R)-1-(3,5-dimethylpyridazin-4-yl)ethoxy)-1H-indazol-3-yl)-2-(3-oxohexahydroimidazo[1,5-a]pyrazin-7(1H)-yl)nicotinonitrile], the Kd in test [1] is 1 to 20 nM; in test [2] it was 20 to 100 nM; in test [3], 1 to 20 nM; in test [4], 1 to 20 nM; in test [5], 1 to 20 nM.
In the case of `COc1cc2[nH]nc(-c3cnc(N4CC(O)C4)c(C#N)c3)c2cc1O[C@H](C)c1c(Cl)cncc1Cl` [Example 326, 5-[5-[(1R)-1-(3,5-dichloro-4-pyridyl)ethoxy]-6-methoxy-1H-indazol-3-yl]-2-(3-hydroxyazetidin-1-yl)pyridine-3-carbonitrile], the Kd in test [1] is 1 to 20 nM; in test [2], 20 to 100 nM; in test [3], 1 to 20 nM; in test [4], 20 to 100 nM; in test [5], 1 to 20 nM.
Consider `COc1cc2[nH]nc(-c3cnc(N4CC[C@H](O)C4)c(C#N)c3)c2cc1O[C@H](C)c1c(Cl)cncc1Cl` [Example 327, 5-[5-[(1R)-1-(3,5-dichloro-4-pyridyl)ethoxy]-6-methoxy-1H-indazol-3-yl]-2-[(3S)-3-hydroxypyrrolidin-1-yl]pyridine-3-carbonitrile], for which the equilibrium dissociation constant (Kd) in test [1], in test [2], in test [3], in test [4] and in test [5] was 1 to 20 nM each time.
As to `COc1cc(-c2n[nH]c3ccc(O[C@H](C)c4c(C)cnnc4C)cc23)cnc1N1CCN2C(=O)NCC2C1` (stereo partly drawn) [Example 328, 7-(5-(5-((R)-1-(3,5-dimethylpyridazin-4-yl)ethoxy)-1H-indazol-3-yl)-3-methoxypyridin-2-yl)hexahydroimidazo[1,5-a]pyrazin-3(2H)-one], the Kd in test [1] was 1 to 20 nM; in test [2], 100 to 300 nM; in test [3], 100 to 300 nM; in test [4], 100 to 300 nM; in test [5] it was 20 to 100 nM.
Turning to `C[C@@H](Oc1ccc2[nH]nc(-c3cnc(N4CC5(CN(CC(F)(F)F)C5)C4)c(C#N)c3)c2c1)c1c(Cl)cncc1Cl` [Example 329, (R)-5-(5-(1-(3,5-dichloropyridin-4-yl)ethoxy)-1H-indazol-3-yl)-2-(6-(2,2,2-trifluoroethyl)-2,6-diazaspiro[3.3]heptan-2-yl)nicotinonitrile], the Kd in test [1] is 1 to 20 nM; in test [2], 100 to 300 nM; in test [3], 20 to 100 nM; in test [4] it was more than 300 nM; in test [5] it was 1 to 20 nM.
As to `C[C@@H](Oc1ccc2[nH]nc(-c3cnc(N4CC5(CN(CC(F)F)C5)C4)c(C#N)c3)c2c1)c1c(Cl)cncc1Cl` [Example 330, (R)-5-(5-(1-(3,5-dichloropyridin-4-yl)ethoxy)-1H-indazol-3-yl)-2-(6-(2,2-difluoroethyl)-2,6-diazaspiro[3.3]heptan-2-yl)nicotinonitrile], the Kd in test [1] lay within 1 to 20 nM; in test [2], 100 to 300 nM; in test [3] it was 20 to 100 nM; in test [4], 100 to 300 nM; in test [5], 1 to 20 nM.
As to `C[C@@H](Oc1ccc2[nH]nc(-c3cnc(N4CC5C(O)C5C4)c(C#N)c3)c2c1)c1c(Cl)cncc1Cl` (stereo partly drawn) [Example 331, 5-(5-((R)-1-(3,5-dichloropyridin-4-yl)ethoxy)-1H-indazol-3-yl)-2-(6-hydroxy-3-azabicyclo[3.1.0]hexan-3-yl)nicotinonitrile], the Kd in test [1] lay within 1 to 20 nM; in test [2] it was 100 to 300 nM; in test [3], 1 to 20 nM; in test [4], 100 to 300 nM; in test [5], 1 to 20 nM.
On to `C[C@@H](Oc1ccc2[nH]nc(-c3cnc(N4CCC[C@@H]4CO)c(C#N)c3)c2c1)c1c(Cl)cncc1Cl` [Example 332, 5-(5-((R)-1-(3,5-dichloropyridin-4-yl)ethoxy)-1H-indazol-3-yl)-2-((R)-2-(hydroxymethyl)pyrrolidin-1-yl)nicotinonitrile], for which the Kd in test [1] fell in the range of 1 to 20 nM; in test [2], 20 to 100 nM; in test [3] it was 1 to 20 nM; in test [4], 20 to 100 nM; in test [5] it was 1 to 20 nM.
On to `COc1cc2[nH]nc(-c3cnc(N4CCCC4)c(C#N)c3)c2cc1O[C@H](C)c1c(Cl)cncc1Cl` [Example 333, 5-[5-[(1R)-1-(3,5-dichloro-4-pyridyl)ethoxy]-6-methoxy-1H-indazol-3-yl]-2-pyrrolidin-1-yl-pyridine-3-carbonitrile], for which the Kd in test [1] lay in the range of 1 to 20 nM; in test [2], 100 to 300 nM; in test [3], 20 to 100 nM; in test [4], 100 to 300 nM; in test [5], 1 to 20 nM.
Consider `C[C@@H](Oc1ccc2[nH]nc(-c3cnc(N4CCC[C@H]4CO)c(C#N)c3)c2c1)c1c(Cl)cncc1Cl` [Example 334, 5-(5-((R)-1-(3,5-dichloropyridin-4-yl)ethoxy)-1H-indazol-3-yl)-2-((S)-2-(hydroxymethyl)pyrrolidin-1-yl)nicotinonitrile], for which the equilibrium dissociation constant (Kd) in test [1] is 1 to 20 nM; in test [2], 20 to 100 nM; in test [3] it was 1 to 20 nM; in test [4], 20 to 100 nM; in test [5] it was 1 to 20 nM.
Regarding `Cc1cnnc(C)c1[C@@H](C)Oc1ccc2[nH]nc(-c3cnc(N4CCC[C@@H]4CO)c(C#N)c3)c2c1` [Example 335, 5-(5-((R)-1-(3,5-dimethylpyridazin-4-yl)ethoxy)-1H-indazol-3-yl)-2-((R)-2-(hydroxymethyl)pyrrolidin-1-yl)nicotinonitrile], the Kd in test [1] lay in the range of 1 to 20 nM; in test [2], 1 to 20 nM; in test [3], 1 to 20 nM; in test [4] it was 20 to 100 nM; in test [5], 1 to 20 nM.

Values taken from patent US20240109865A1, “INDAZOLE COMPOUNDS AS KINASE INHIBITORS” (TYRA BIOSCIENCES, INC., priority 2020, published 2024).
